Test results reported in publication PMC8587043, “An Investigation into the Interaction between Double Hydroxide-Based Antioxidant Benzophenone Derivatives and Cyclooxygenase 2” (Molecules, 2021).

Assays:
COX2 [1] = target: T1, COX2 (Homo sapiens, UniProt P35354); assay: Three-dimensional fluorescence spectroscopy of COX2-compound systems; type: binding; settings: for Peak Position λex/λem, peak 2 / Relative Intensity (I), peak 2 / Relative Intensity (I), peak 1: compound 4.50 × 10^−5 mol∙L^−1, 298 K; for Relative Intensity (I), peak 2: COX2 alone 775; for Relative Intensity (I), peak 1: COX2 alone 874
T1 construct: purchased Sino Biological Co. (Beijing, China)
T1 sequence (P35354 18-604): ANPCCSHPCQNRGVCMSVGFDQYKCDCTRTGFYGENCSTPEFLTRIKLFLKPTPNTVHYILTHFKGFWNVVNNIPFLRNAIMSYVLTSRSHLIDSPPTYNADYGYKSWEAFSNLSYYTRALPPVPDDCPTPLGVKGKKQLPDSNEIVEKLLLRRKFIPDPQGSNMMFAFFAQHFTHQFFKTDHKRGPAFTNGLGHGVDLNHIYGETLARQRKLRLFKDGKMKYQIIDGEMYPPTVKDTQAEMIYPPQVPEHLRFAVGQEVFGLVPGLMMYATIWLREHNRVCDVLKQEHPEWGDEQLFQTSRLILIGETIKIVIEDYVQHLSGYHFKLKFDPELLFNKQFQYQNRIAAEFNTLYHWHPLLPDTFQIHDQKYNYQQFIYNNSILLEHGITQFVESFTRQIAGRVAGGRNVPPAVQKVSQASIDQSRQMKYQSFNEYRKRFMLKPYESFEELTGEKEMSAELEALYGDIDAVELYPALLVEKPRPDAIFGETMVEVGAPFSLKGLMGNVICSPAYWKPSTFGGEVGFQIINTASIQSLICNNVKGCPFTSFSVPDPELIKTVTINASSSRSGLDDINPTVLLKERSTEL
Text: Three-dimensional fluorescence spectroscopy can reflect the microenvironment of related fluorophores. It was employed to study the structural changes of COX2 before and after binding. Peak 1 and peak 2 were maintained at 272/338 nm and 230/337 nm, respectively. […] Peak 2 reflected the fluorescence information of the polypeptide backbone structure of COX2, involving pi-to-pi* transition related to the secondary structure changes. According to Figure 7 and Table 3, both peak 1 and peak 2 of COX2 had been quenched. […] Furthermore, the fluorescence intensity of peak 1 was higher than that of peak 2 in the spectra for COX2-SC2 complex (Table 3). It implies that the fluorescence quenching of COX2 by compound SC2 on peak 2 was more evident than on peak 1. We could draw a conclusion that the interaction of compound SC2 with COX2 induced the slight opening of the polypeptides of protein, thereafter changing the conformation of COX2. […] Comparison of Figure 7a with Figure 7c also implied that there was a blue shift of 5.5 nm for peak 1, and 4 nm for peak 2. […] These changes induced the increase in hydrophobicity of COX2, decrease in collisions between COX2 molecules and water, and increase in the quantum yield of COX2. […] Taken together, these combined results implicate the ability of compounds DB2, SC2 and YB2 to bind to COX2.
The fluorescence intensity of the system was measured with a 1.0 cm quartz cell. […] DB2, SC2 or YB2 stock solutions were prepared in singleton at 1.5 × 10^−3 mol∙L^−1 in PBS containing 0.1% DMSO. 2.0 mL COX2 solution was separately titrated by continuing additions of 10 μL compounds DB2, SC2 or YB2 solution). After incubation at 298 K or 310 K, fluorescence quenching spectra were recorded in the region 325-450 nm at a scan rate of 1200 nm∙min^−1. The local environment of Tyr and Trp residues was quite sensitive at 280 nm, so the excitation wavelength was set at this wavelength. Typically, 280 nm is also used to measure the changes in protein tertiary structure. The slit widths of emission and excitation were both fixed at 10 nm. To observe spectra behaviors of Tyr and Trp groups of COX2, the wavelength interval between the excitation and emission wavelengths (Δλ) was set as 15 nm and 60 nm, respectively. Three-dimensional fluorescence spectroscopy was obtained for an excitation range of 200–300 nm and an emission range of 325–400 nm. Appropriate buffer solutions, determined under the same operation conditions, were used as blanks. Each spectrum was recorded three times.

COX2 [2] = target: T1, COX2; assay: Biolayer interferometry (BLI) binding to His-tagged COX2 on Ni-NTA sensors; settings: for Kd: BLI, one-to-one binding model, 4–6 point concentration series, read-out: KD (equilibrium dissociation constant); for COX2 binding in BLI: initial assay at 100 μM, binders re-assayed in concentration series
Text: The label-free real-time binding assay, BLI, was firstly performed to evaluate the potential COX2 binding activities of the twelve novel compounds. COX2 protein was captured onto the Ni-NTA sensors, by the virtue of its His-tag, followed by exposure to small-molecule compound. The binding of small-molecule compound to the biosensor increased the layer thickness of the sensor, resulting in an interference wavelength shift recorded by BLI. All 12 compounds were initially assayed at a single concentration of 100 μM (Figure 2a).
A significant shift in the association curve was observed upon addition of different concentrations of compounds DB2, SC2 and YB2 to COX2 in a concentration dependent manner (Figure 2b–d). During the dissociation step, it was also observed that the signal decreased to the baseline. That was a sign of a total protein-ligand dissociation, thus indicating the interaction was reversible. The real-time binding curves were generated fitting to a one-to-one binding model. The ratio of koff (dissociation) and kon (association) constants was equilibrium dissociation constants (KD).
His-tagged COX2 solution (40 μg∙mL^−1), which was prepared in phosphate buffer saline (PBS), was immobilized on Ni-NTA biosensor tips for 600 s. To remove drift and well-to-well artifacts, we performed double reference subtraction with FortéBio data analysis software. All the twelve compounds stock solutions (10 mM) were prepared in dimethyl sulfoxide (DMSO). The stock solutions were diluted with PBS containing 0.1% […] (PBST) to 100 μM for the initial assay. Typically, for re-assay, the stock solutions were serially diluted (4–6 point serial dilutions) in PBST. Compound testing was performed sequentially taking baseline, association and dissociation steps. Each of these steps took 60 s. The alignment of data was carried out using baseline signal and curves fitted with a one to one best-fit model in FortéBio’s data analysis software.

SMILES	blue shift of peak 1 (COX2 [1]; COX2-compound vs COX2 alone)	blue shift of peak 2 (COX2 [1]; COX2-compound vs COX2 alone)	Peak Position λex/λem, peak 2 (COX2 [1])	Relative Intensity (I), peak 2 (COX2 [1])	Relative Intensity (I), peak 1 (COX2 [1])	Kd (COX2 [2])	COX2 binding in BLI (COX2 [2])
CC(C)(C)c1ccc(C(=O)c2c(Cl)cc(O)c(O)c2O)cc1 [SC2]	5.5 nm	4 nm	236/333	82.9	395	627 µM	interacted with the protein
CC(C)Cc1ccc(C(=O)c2c(Br)cc(O)c(O)c2O)cc1 [YB2]	–	–	236/336	103	472	766 µM	interacted with the protein
CCCCc1ccc(C(=O)c2c(Br)cc(O)c(O)c2O)cc1 [DB2]	–	–	236/337	153	665	394 µM	interacted with the protein
